Values joined by “and” are separate entries in the source; they are usually repeats but may differ in a detail not shown here. Identical values can stand only once.
How the values were obtained:
[1] = test system: P388 murine leukemia; assay: Antitumor activity against P388 murine leukemia in CDF1 mice; assay type: in vivo; details: 1 x on day 1; for P 388 Dose producing the maximum % T/C: administered ip; for P 388 Maximum % T/C: median survival time treated/saline control x 100, ip, active if ≥125
Protocol: (§1) All of the metal complexes were tested for antitumor activity against P388 murine leukemia. Selected compounds were also tested for antitumor activity against L1210 murine leukemia and a subline of L1210 murine leukemia resistant to cisplatin (L1210:DDP). CDF1 mice weighing 20 grams were inoculated intraperitoneally with 10^6 ascites cells of P388 leukemia, L1210 leukemia or L1210:DDP leukemia, depending on the test system being used. Drug administration was initiated the day following tumor implantation in all test systems. The complexes were administered at various dose levels by intraperitoneal injection. Groups of four to six mice were used for each dose level and they were treated with the complex on day one only. A group of ten saline treated control mice was included in each experiment. Cisplatin treated groups were included as a positive control in each experiment. The mice were weighed before treatment and again on day five or six and the average weight change used as a measure of toxicity. The animals were observed daily for mortality and the experiments terminated after 30 days. Antitumor activity was determined based on % T/C, which is the ratio of the median survival time of the drug treated group to the median survival time of the saline treated control group times 100. The saline treated mice usually have a median survival time of 9 days with P388 leukemia and 7 days with L1210 and L1210/DDP leukemia. A complex is considered active if it produces a % T/C of ≥125.
(§2) Tables II and IIa contain summaries of the evaluations of the compounds for antitumor activity against the murine leukemias. Listed for each compound is the maximum % T/C achieved and the dose producing that effect.
(§3) For the in vitro cytotoxicity studies the drugs were dissolved or suspended, depending on their solubility, in 0.9% NaCl solution. Occasionally, 5% dextrose in water or 10% DMSO in 0.9% NaCl was used. The compounds were prepared for in vivo treatment by dissolving or suspending, with the addition of minimal amounts of Tween 80, in water.

[2] = test system: B16 Melanoma; assay: Antitumor activity against B16 Melanoma in BDF1 mice; assay type: in vivo; details: for B 16 Dose producing the maximum % T/C: administered ip, days 1-9; for B 16 Maximum % T/C: median survival time vs saline control, ip, daily days 1-9, active if ≥125, figures separated by slashes are from separate experiments
Protocol: Several of the metal complexes were additionally evaluated for antitumor activity against B16 Melanoma. BDF1 mice, 10 per group, were inoculated intraperitoneally with 0.5 ml of a 10 percent (w:v) brei of B16 Melanoma. Intraperitoneal treatment with the metal complexes was initiated one day after implant and continued daily for a total of nine days. From 4 to 5 doses were tested for each compound under study. A saline treated control group and cisplatin treated groups were included in each experiment. The mice were observed daily for survivors and the experiments terminated after 60 days. […] The median survival time of the drug treated mice relative to that of the controls (% T/C) was used as a measure of antitumor activity.
Occasionally, 5% dextrose in water or 10% DMSO in 0.9% NaCl was used. The compounds were prepared for in vivo treatment by dissolving or suspending, with the addition of minimal amounts of Tween 80, in water.

[3] = test system: L1210 murine leukemia resistant to cisplatin (L1210:DDP); assay: Antitumor activity against cisplatin-resistant L1210 murine leukemia (L1210/DDP) in CDF1 mice; assay type: in vivo; details: cisplatin-resistant subline, day 1; for L1210/DDP Dose producing the maximum % T/C: administered ip; for L1210/DDP Max. % T/C: done concomitantly with L1210 test, ip, active if ≥125
Protocol: as §1, §2, §3

[4] = test system: L1210 murine leukemia; assay: Antitumor activity against L1210 murine leukemia in CDF1 mice; assay type: in vivo; details: day 1; for L1210 Dose producing the maximum % T/C: administered ip; for L1210 Max. % T/C: median survival time treated/saline control x 100, ip, active if ≥125
Protocol: as §1, §2, §3

[5] = test system: B16-F10 murine melanoma cells; assay: In vitro cytotoxicity, B16-F10 murine melanoma cells (72 h, crystal violet); assay type: cell-based
Protocol: (§4) Logarithmically growing cells were harvested by mild trypsinization and 4000 cells were added to each well of a 96-well microtiter plate (Costar). […] The cells were then treated with a metal complex or cisplatin and incubated for 72 hours. The plates were inverted and shaken to remove media, drug and detached cells. […] The fixative was removed, the plates air dried, stained with 0.0075% crystal violet for 15 minutes, washed twice and air dried. The stain was solubilized with 0.2 ml of 0.1 M AcOH/EtOH (1:1) and optical densities determined using a Dynatech MR600 microtiter plate reader. […] The compounds were prepared for in vivo treatment by dissolving or suspending, with the addition of minimal amounts of Tween 80, in water.

[6] = test system: HCT-116 human colon carcinoma cells; assay: In vitro cytotoxicity, HCT-116 human colon carcinoma cells (72 h, crystal violet); assay type: cell-based; details: HCT-116 cells
Protocol: as §4

Row | Compound | P 388 Dose producing the maximum % T/C [1] [mg/kg] | P 388 Maximum % T/C [1] [% T/C] | B 16 Dose producing the maximum % T/C [2] [mg/kg/inj.] | B 16 Maximum % T/C [2] | L1210/DDP Dose producing the maximum % T/C [3] [mg/kg] | L1210/DDP Max. % T/C [3] [% T/C] | L1210 Dose producing the maximum % T/C [4] | L1210 Max. % T/C [4] [% T/C] | IC 50 (concentration which inhibits cell growth by 50%), B 16 [5] [µg/mL] | IC 50 (concentration which inhibits cell growth by 50%), HCT 116 [6] [µg/mL]
1 | O=S(=O)([O-])C(F)(F)F.[Rh+].c1ccc(P(CCP(c2ccccc2)c2ccccc2)c2ccccc2)cc1.c1ccc(P(CCP(c2ccccc2)c2ccccc2)c2ccccc2)cc1 [TNO 302, Bis[1,2-bis(diphenylphosphino)ethane]rhodium(I) triflate] | 4 | 153 | 3.2 | 150 % T/C and 126 % T/C | – | – | – | – | – | –
2 | [O-][Cl+3]([O-])([O-])[O-].[Rh+].c1ccc(P(CCP(c2ccccc2)c2ccccc2)c2ccccc2)cc1.c1ccc(P(CCP(c2ccccc2)c2ccccc2)c2ccccc2)cc1 [TNO 316, Bis[1,2-bis(diphenylphosphino)ethane]rhodium(I) perchlorate] | 12.5 | 150 | 16 | 131 % T/C | 120 | 157 | 160 mg/kg | 133 | – | –
3 | [I-].[I-].[Pd+2].c1ccc(P(CCP(c2ccccc2)c2ccccc2)c2ccccc2)cc1.c1ccc(P(CCP(c2ccccc2)c2ccccc2)c2ccccc2)cc1 [TNO 342, Bis[1,2-(diphenylphosphino)ethane]diiodo palladium(II)] | 5 | 139 | – | – | – | – | – | – | – | –
4 | [O-][Cl+3]([O-])([O-])[O-].[O-][Cl+3]([O-])([O-])[O-].[Pd+2].c1ccc(P(CCP(c2ccccc2)c2ccccc2)c2ccccc2)cc1.c1ccc(P(CCP(c2ccccc2)c2ccccc2)c2ccccc2)cc1 [TNO 343, Bis[1,2-bis(diphenylphosphino)ethane]palladium(II) diperchlorate] | 200 | 178 | 60 | 204 % T/C | – | – | – | – | – | –
5 | O=[N+]([O-])[O-].O=[N+]([O-])[O-].[Pd+2].c1ccc(P(CCP(c2ccccc2)c2ccccc2)c2ccccc2)cc1.c1ccc(P(CCP(c2ccccc2)c2ccccc2)c2ccccc2)cc1 [TNO 345, Bis[1,2-bis(diphenylphosphino)ethane]palladium(II) dinitrate] | – | – | – | – | – | – | 0,8 mg/kg | 100 | 4.0 | 19.6
6 | [Br-].[Br-].[Co+2].c1ccc(P(CCP(c2ccccc2)c2ccccc2)c2ccccc2)cc1.c1ccc(P(CCP(c2ccccc2)c2ccccc2)c2ccccc2)cc1 [TNO 346, Bis[1,2-bis(diphenylphosphino)ethane]bromo cobalt(II) bromide] | 100 | 167 | – | – | – | – | 200 mg/kg | 100 | – | –
7 | [Cl-].[Cl-].[Cl-].[Rh+3].c1ccc(P(CCP(c2ccccc2)c2ccccc2)c2ccccc2)cc1.c1ccc(P(CCP(c2ccccc2)c2ccccc2)c2ccccc2)cc1 [TNO 363, Bis[1,2-bis(diphenylphosphino)ethane]dichloro rhodium(III) chloride] | 50 | 133 | – | – | – | – | – | – | – | –
8 | [Br-].[Br][Pd+].c1ccc(P(CCP(c2ccccc2)c2ccccc2)c2ccccc2)cc1.c1ccc(P(CCP(c2ccccc2)c2ccccc2)c2ccccc2)cc1 [TNO 376, Bis[1,2-bis(diphenylphosphino)ethane]bromo palladium(II) bromide] | – | – | – | – | – | – | – | – | 0.7 | 6.3
9 | [Cl-].[Cl-].[O-][Cl+3]([O-])([O-])[O-].[Rh+3].c1ccc(P(CC[As](c2ccccc2)c2ccccc2)c2ccccc2)cc1.c1ccc(P(CC[As](c2ccccc2)c2ccccc2)c2ccccc2)cc1 [TNO 395, Bis[1-diphenylphosphino-2-diphenylarsinoethane]dichloro rhodium(III) perchlorate] | 200 | 136 | – | – | – | – | – | – | – | –
10 | C(=CP(c1ccccc1)c1ccccc1)P(c1ccccc1)c1ccccc1.C(=CP(c1ccccc1)c1ccccc1)P(c1ccccc1)c1ccccc1.[Cl-].[Cl-].[Fe+2] [TNO 396, Bis[cis-1,2-bis(diphenylphosphino)ethylene]dichloro iron(II)] | 200 | 150 | – | – | – | – | – | – | 452 | 383
11 | [Ir+3].[O-][Cl+3]([O-])([O-])[O-].[O-][O-].c1ccc(P(CCP(c2ccccc2)c2ccccc2)c2ccccc2)cc1.c1ccc(P(CCP(c2ccccc2)c2ccccc2)c2ccccc2)cc1 [TNO 413, Bis[1,2-bis(diphenylphosphino)ethane]peroxo iridium(III) perchlorate] | 200 | 170 | – | – | – | – | – | – | – | –
12 | Bis[1,2-bis(diphenylphosphino)ethane] cobalt(II) diperchlorate [TNO 358] | 100 | 144 | 20 | 150 % T/C | 100 | 143 | 120 mg/kg | 142 | – | –
13 | Bis[1,2-bis(diphenylphosphino)ethane] dichloro rhodium(III) perchlorate [TNO 355] | 100 | 167 | 30 | 171 % T/C | 49 | 119 | 80 mg/kg | 114 | – | –
14 | Bis[1,2-bis(diphenylphosphino)ethane] iridium(I) perchlorate [TNO 344] | 200 | 167 | 20 | 150 % T/C | – | – | – | – | – | –
15 | Bis[1,2-bis(diphenylphosphino)ethane] nickel(II) perchlorate [TNO 404] | 25 | 240 | – | – | – | – | – | – | – | –
16 | Bis[1,2-bis(diphenylphosphino)ethane]palladium(II) dichlorate [TNO 306] | 60 | 144 | 12 | 202 % T/C and 151 % T/C | 3.0 | 100 | 1.9 mg/kg | 100 | 57 | –
17 | Bis[cis-1,2-bis(diphenylphosphino)ethylene]dichloro iron(III) tetrachloroferrate(III) [TNO 405] | 100 | 160 | – | – | – | – | – | – | – | –
18 | Bis[cis-1,2-bis(diphenylphosphino)ethylene]palladium(II) dichloride [TNO 357] | – | – | – | – | – | – | – | – | 27.7 | 13.1
